US11833137B2, “Substituted chromenones, IRE1 inhibitors, and methods of using same” (The Wistar Institute, priority 2018, dated 2023)

Assays:
[1] = tested on: CD11b+/Ly6G+ granulocytic MDSCs; test: MDSC-mediated T cell suppression assay; type: in vivo, mouse; conditions: OT-I splenocytes, OVA peptide
Protocol: FIGS. 24A-24J illustrate the finding that targeting XBP-1s in CLL cells of MD4^+/−/Eμ-TCL1^+/+ mice leads to reduced production of sIgM, and decreased numbers and function of granulocytic MDSCs. […]. Gated CD11c−/CD11b+ populations were analyzed for Ly6C^intermediate/Ly6G+ granulocytic MDSCs and Ly6C+/Ly6G− monocytic MDSCs. (FIG. 24C) Percentages of CD11b+ myeloid cells in the blood of MD4^+/−/Eμ-TCL1^+/+ and XBP-1^KO/MD4^+/−/Eμ-TCL1^+/+ mice were plotted as mean±SEM. (FIG. 24D) Percentages of CD11b+/Ly6C^intermediate/Ly6G+ granulocytic MDSCs in the blood of MD4^+/−/Eμ-TCL1^+/+ and XBP-1^KO/MD4^+/−/Eμ-TCL1^+/+ mice were plotted as mean±SEM. […] Gated CD11b+/Ly6C^intermediate/Ly6G+ granulocytic MDSCs were analyzed for the expression of Arg-1. (FIG. 24F) Mean fluorescence intensity (MFI) of Arg-1 in gated CD11b+/Ly6C^intermediate/Ly6G+ granulocytic MDSCs from spleens of 5 MD4^+/−/Eμ-TCL1^+/+ and 5 XBP-1^KO/MD4^+/−/Eμ-TCL1^+/+ mice was plotted as mean±SEM. […] The ^3H-thymidine uptake was measured, and the percentages of proliferation were calculated by comparing to the positive control and plotted as mean±SEM. […] The percentage of CLL cells in PBMCs for each mouse was determined by flow cytofluorometry on day 6 and day 13, and compared with the CLL burden data of the mouse on day 0 (100%). […]

[2] = tested on: CLL; conditions: mouse, in vivo; cited from earlier work
[3] = tested on: MEC2 cells; conditions: cited from earlier work

For O=c1oc2c(C3OCCCO3)c(O)ccc2c2c1CNCC2 [Compound 4, 7-(1,3-dioxan-2-yl)-8-hydroxy-1,2,3,4-tetrahydro-5H-chromeno[3,4-c]pyridin-5-one], the “suppression of T cell proliferation by MDSCs from injected mice” value [1] is given as “lost their immunosuppressive function”, the “growth of CLL” value [2] is given as “retard the growth of CLL” and the “sensitivity of MEC2 cells” value [3] is given as “less sensitive”.
